Experimental data as given in US6642216B2, “Isoprenoid pathway inhibitors for stimulating bone growth” (ZymoGenetics Corporation, priority 1996, dated 2003).

Experiments:
murine calvariae = conditions: reports by R. G. G. Russell and colleagues; cited from earlier work
BMP-2 promoter = test: ABA assay: BMP-2 promoter-luciferase reporter in 2T3-BMP-2-LUC osteoblast cells; format: cell-based, mouse
Protocol: These transformed cells are then evaluated for the production of the reporter gene product; compounds that activate the BMP promoter will drive production of the reporter protein, which can be readily assayed.
The cells were cultured using α-MEM, 10% FCS with 1% penicillin/streptomycin and 1% glutamine (“plating medium”), and were split 1:5 once per week. For the assay, the cells were resuspended in a plating medium containing 4% FCS, plated in microtiter plates at a concentration of 5×10^3 cells (in 50 μl)/well, and incubated for 24 hours at 37° C. in 5% CO2. To initiate the assay, 50 μl of the test compound or the control in DMSO was added at 2× concentration to each well, so that the final volume was 100 μl. The final serum concentration was 2% FCS, and the final DMSO concentration was 1%.
The treated cells were incubated for 24 hours at 37° C. and 5% CO2. The medium was then removed, and the cells were rinsed three times with PBS. After removal of excess PBS, 25 μl of 1× cell culture lysing reagent (Promega #E153A) was added to each well and incubated for at least ten minutes. Optionally, the plates/samples could be frozen at this point. To each well was added 50 μl of luciferase substrate (Promega #E152A; 10 ml Promega luciferase assay buffer per 7 mg Promega luciferase assay substrate). Luminescence was measured on an automated 96-well luminometer, and was expressed as either picograms of luciferase activity per well or as picograms of luciferase activity per microgram of protein.
Alternatively, the reactivity of a compound to be tested can be compared directly to a negative control containing no compound.

[1] = test system: serum response element (SRE)-luciferase reporter gene / CRE-luciferase reporter gene; test: negative control OBSRE (SRE-luciferase) and/or glucagon (CRE-luciferase) assays; format: cell-based, murine
From the text: In the negative control OBSRE assay, a murine osteoblast cell line, such as CCC-4 expressing a serum response element (SRE)-luciferase reporter gene is used (see WO96/07733). In the negative control glucagon assay, a glucagon receptor-positive BHK cell expressing a CRE-luciferase reporter gene is used (see U.S. Pat. No. 5,698,672).

[2] = Experiment 2, 0.097656 μM, 0.038085 μg/ml
[3] = Experiment 2, 0.195312 μM, 0.076171 μg/ml
[4] = Experiment 2, 0.390625 μM, 0.152343 μg/ml
[5] = Experiment 2, 0.78125 μM, 0.304687 μg/ml
[6] = Experiment 2, 1.5625 μM, 0.609375 μg/ml
[7] = Experiment 2, 3.125 μM, 1.21875 μg/ml
[8] = Experiment 2, 6.25 μM, 2.4375 μg/ml
[9] = Experiment 2, 12.5 μM, 4.875 μg/ml
[10] = Experiment 2, 25 μM, 9.75 μg/ml
[11] = Experiment 2, 50 μM, 19.5 μg/ml

CC[C@H](C)C(=O)O[C@H]1CCC=C2C=C[C@H](C)[C@H](CC[C@@H]3C[C@@H](O)CC(=O)O3)[C@H]21 [Mevastatin, mevastatin]
inhibition of bone resorption in murine calvariae in vitro (murine calvariae): inhibits bone resorption | dose-dependent stimulatory effect in the ABA assay (BMP-2 promoter): dose-dependent stimulatory effect | % 59-0008 Response (BMP-2 promoter; Experiment 1, 0.195312 μg/ml): 25.840% | Fold increase over negative control (BMP-2 promoter; Experiment 1, 0.195312 μg/ml): 2.144 fold | % 59-0008 Response (BMP-2 promoter; Experiment 1, 0.390625 μg/ml): 15.650% | Fold increase over negative control (BMP-2 promoter; Experiment 1, 0.390625 μg/ml): 1.693 fold | % 59-0008 Response (BMP-2 promoter; Experiment 1, 0.78125 μg/ml): 34.520% | Fold increase over negative control (BMP-2 promoter; Experiment 1, 0.78125 μg/ml): 2.528 fold | % 59-0008 Response (BMP-2 promoter; Experiment 1, 1.5625 μg/ml): 47.630% | Fold increase over negative control (BMP-2 promoter; Experiment 1, 1.5625 μg/ml): 3.103 fold | % 59-0008 Response (BMP-2 promoter; Experiment 1, 3.125 μg/ml): 99.670% | Fold increase over negative control (BMP-2 promoter; Experiment 1, 3.125 μg/ml): 5.413 fold | % 59-0008 Response (BMP-2 promoter; Experiment 1, 6.25 μg/ml): 140.260% | Fold increase over negative control (BMP-2 promoter; Experiment 1, 6.25 μg/ml): 7.210 fold | % 59-0008 Response (BMP-2 promoter; Experiment 1, 12.5 μg/ml): 164.730% | Fold increase over negative control (BMP-2 promoter; Experiment 1, 12.5 μg/ml): 8.293 fold | % 59-0008 Response (BMP-2 promoter; Experiment 1, 25 μg/ml): 152.690% | Fold increase over negative control (BMP-2 promoter; Experiment 1, 25 μg/ml): 7.760 fold | % 59-0008 Response (BMP-2 promoter; Experiment 1, 50 μg/ml): 153.110% | Fold increase over negative control (BMP-2 promoter; Experiment 1, 50 μg/ml): 7.779 fold | % 59-0008 Response (BMP-2 promoter; Experiment 1, 100 μg/ml): 12.460% | Fold increase over negative control (BMP-2 promoter; Experiment 1, 100 μg/ml): 1.552 fold | % 59-0008 Response (BMP-2 promoter; Experiment 1, 200 μg/ml): −1.600% | Fold increase over negative control (BMP-2 promoter; Experiment 1, 200 μg/ml): 0.929 fold | % 59-0008 Response (BMP-2 promoter; [2]): 2.880% | Fold increase over negative control (BMP-2 promoter; [2]): 1.1 fold | % 59-0008 Response (BMP-2 promoter; [3]): −0.090% | Fold increase over negative control (BMP-2 promoter; [3]): 0.9 fold | % 59-0008 Response (BMP-2 promoter; [4]): 0.960% | Fold increase over negative control (BMP-2 promoter; [4]): 1.0 fold | % 59-0008 Response (BMP-2 promoter; [5]): 2.370% | Fold increase over negative control (BMP-2 promoter; [5]): 1.1 fold | % 59-0008 Response (BMP-2 promoter; [6]): 9.780% | Fold increase over negative control (BMP-2 promoter; [6]): 1.6 fold | % 59-0008 Response (BMP-2 promoter; [7]): 10.970% | Fold increase over negative control (BMP-2 promoter; [7]): 1.7 fold | % 59-0008 Response (BMP-2 promoter; [8]): 36.210% | Fold increase over negative control (BMP-2 promoter; [8]): 3.4 fold | % 59-0008 Response (BMP-2 promoter; [9]): 66.010% | Fold increase over negative control (BMP-2 promoter; [9]): 5.3 fold | % 59-0008 Response (BMP-2 promoter; [10]): 71.630% | Fold increase over negative control (BMP-2 promoter; [10]): 5.7 fold | % 59-0008 Response (BMP-2 promoter; [11]): 97.420% | Fold increase over negative control (BMP-2 promoter; [11]): 7.4 fold | % 59-0008 Response (BMP-2 promoter; Experiment 2, 100 μM, 39 μg/ml): 88.860% | Fold increase over negative control (BMP-2 promoter; Experiment 2, 100 μM, 39 μg/ml): 6.9 fold | dose-dependent stimulatory effect in control assays [1]: not in control assays

CCC(C)(C)C(=O)O[C@H]1C[C@@H](C)C=C2C=C[C@H](C)[C@H](CC[C@@H](O)C[C@@H](O)CC(=O)O)[C@H]21 [Hydrolyzed simvastatin, hydrolyzed simvastatin]
dose-dependent stimulatory effect in the ABA assay (BMP-2 promoter): dose-dependent stimulatory effect | % 59-0008 Response (BMP-2 promoter; Experiment 1, 0.195312 μg/ml): −0.680% | Fold increase over negative control (BMP-2 promoter; Experiment 1, 0.195312 μg/ml): 0.9 fold | % 59-0008 Response (BMP-2 promoter; Experiment 1, 0.390625 μg/ml): 1.520% | Fold increase over negative control (BMP-2 promoter; Experiment 1, 0.390625 μg/ml): 1.1 fold | % 59-0008 Response (BMP-2 promoter; Experiment 1, 0.78125 μg/ml): 10.430% | Fold increase over negative control (BMP-2 promoter; Experiment 1, 0.78125 μg/ml): 1.6 fold | % 59-0008 Response (BMP-2 promoter; Experiment 1, 1.5625 μg/ml): 36.190% | Fold increase over negative control (BMP-2 promoter; Experiment 1, 1.5625 μg/ml): 3.4 fold | % 59-0008 Response (BMP-2 promoter; Experiment 1, 3.125 μg/ml): 75.860% | Fold increase over negative control (BMP-2 promoter; Experiment 1, 3.125 μg/ml): 6.0 fold | % 59-0008 Response (BMP-2 promoter; Experiment 1, 6.25 μg/ml): 150.260% | Fold increase over negative control (BMP-2 promoter; Experiment 1, 6.25 μg/ml): 10.9 fold | % 59-0008 Response (BMP-2 promoter; Experiment 1, 12.5 μg/ml): 156.230% | Fold increase over negative control (BMP-2 promoter; Experiment 1, 12.5 μg/ml): 11.3 fold | % 59-0008 Response (BMP-2 promoter; Experiment 1, 25 μg/ml): 200.230% | Fold increase over negative control (BMP-2 promoter; Experiment 1, 25 μg/ml): 14.3 fold | % 59-0008 Response (BMP-2 promoter; Experiment 1, 50 μg/ml): 44.520% | Fold increase over negative control (BMP-2 promoter; Experiment 1, 50 μg/ml): 3.9 fold | % 59-0008 Response (BMP-2 promoter; Experiment 1, 100 μg/ml): −15.230% | Fold increase over negative control (BMP-2 promoter; Experiment 1, 100 μg/ml): −0.0 fold | % 59-0008 Response (BMP-2 promoter; Experiment 1, 200 μg/ml): −15.140% | Fold increase over negative control (BMP-2 promoter; Experiment 1, 200 μg/ml): −0.0 fold | dose-dependent stimulatory effect in control assays [1]: not in control assays
